pEC50: −log10 of the molar value.
Assays:
[1] = CC50 assay in Huh-7 HCV replicon cells (CellTiter-Glo); type: cell-based; conditions: human, 3 days incubation, CellTiter-Glo luminescence
Protocol: (§1) The anti-HCV activity of the pyrido[3,2-d]pyrimidine derivatives of this invention was tested in a human hepatoma Huh-7 cell line harbouring a HCV replicon. The assay comprised the following steps:
(§2) Step 1: Compound Preparation and Serial Dilution
(§3) • 1. for water soluble pyrido[3,2-d]pyrimidine derivatives, a volume of 500 μL of solution in cell media (DMEM, 10% FBS, P/S, L-Glutamine) was prepared with a concentration being twice the concentration of the starting final serial dilution concentration. A volume of 150 μL of the solution was added to the pre-specified wells in column 1 of a 96-well cell culture plate (PerkinElmer, white plate, cat. #6005181, for EC50 assay; black plate, cat. #6005182 for CC50 assay). The rest of the plate, columns 2-12, was filled with 100 μL of cell media. The plate was then placed on a Precision 2000 Workstation to start the serial dilution. Compounds were diluted three times each step from column 1 to column 10. Column 11 was used as a blank control (no compound added). • 2. for pyrido[3,2-d]pyrimidine derivatives requiring DMSO to dissolve, serial dilution is performed in 50% DMSO in a 384-well plate. A solution containing a compound at 100-fold concentration of the starting final serial dilution concentration was prepared in 50% DMSO and added to the pre-specified wells in column 1 of a polypropylene 384-well plate. The plate was then placed on a Precision 2000 Workstation to start the serial dilution. After the serial dilution, a volume of 2 μL of the solution was transferred from the 384-well plate to a 96-well cell culture plate containing 100 μL of cell media on a Biomek FX Workstation. The DMSO concentration in the final assay condition was 0.5% after cells are added to the plate and the total volume in each well is brought to 200 μL. Step 2: to each well of the serial dilution plate prepared above, 100 μL of cell media containing 6000 suspended Huh-7 HCV replicon cells was added with a Multidrop workstation. The plates were incubated for 3 days at 37° C. with 5% CO2. Step 3: Detection: • a) for the EC50 assay, the media in a 96-well cell culture plate was aspirated with a Biotek EL405 plate-washer. A volume of 200 μL of a solution containing a 1:1 mixture of cell-lysis buffer (Promega, Luciferase Cell Culture Lysis 5× Reagent, cat. #E1531) and luciferase substrate solution (Promega, Luciferase Assay, cat. # E4550) was added to each well of the plate with Multidrop. The plate was incubated for 30 minutes at room temperature before the luminescence signal was measured with a TopCount plate-reader. • b) for the CC50 assay, a volume of 100 μL of pre-mixed CellTiter-Glo (Promega, cat. # G7572) solution is added directly to the cell culture in each well of the plate and the luminescence signal is measured with a TopCount plate-reader after 10 minutes of incubation at room temperature.
the 50% cytostatic concentration (CC50), i.e. the concentration that results in 50% inhibition of cell growth.

[2] = test system: HCV replicon; experiment: Anti-HCV replicon assay (EC50, luciferase); type: cell-based; conditions: Hepatitis C virus, 72 h; human hepatoma Huh-7 cell line harbouring a HCV replicon, 3 days incubation, luciferase luminescence
Protocol: as §1, §2, §3
Results in table 13 are expressed by the following data: • the 50% effective concentration (EC50), i.e. the concentration that protects 50% of the cell monolayer from virus-induced cytopathic effect, and […]

CCCOCCOc1nc(N)nc2ccc(-c3ccc(F)cc3)nc12 [Example 3, 2-amino-4-(2-propoxyethoxy)-6-(4-fluorophenyl)pyrido(3,2-d)pyrimidine]
CC50 at 3 days [1]: > 20000 nM
pEC50 [2]: 6.00 to 6.52

CCCCOCCOc1nc(N)nc2ccc(-c3ccc(F)cc3)nc12 [Example 4, 2-amino-4-(2-butoxyethoxy)-6-(4-fluorophenyl)pyrido(3,2-d)pyrimidine]
CC50 at 3 days [1]: > 20000 nM
pEC50 [2]: < 6.00

CCOC(C)COc1nc(N)nc2ccc(-c3ccc(F)cc3)nc12 (stereo not drawn) [Example 5, 2-amino-4-(2-ethoxy-1-propoxy)-6-(4-fluorophenyl)pyrido(3,2-d)pyri-midine]
CC50 at 3 days [1]: > 20000 nM
pEC50 [2]: > 6.52

CC(C)OCCOc1nc(N)nc2ccc(-c3ccc(F)cc3)nc12 [Example 6, 2-amino-4-(2-isopropoxyethoxy)-6-(4-fluorophenyl)pyrido(3,2-d)pyrimidine]
CC50 at 3 days [1]: > 20000 nM
pEC50 [2]: > 6.52

Nc1nc(OCC(F)F)c2nc(-c3ccc(F)cc3)ccc2n1 [Example 7, 2-amino-4-(2,2-difluoroethoxy)-6-(4-fluorophenyl)pyrido(3,2-d)pyrimidine]
CC50 at 3 days [1]: > 20000 nM
pEC50 [2]: > 6.52

CSCCOc1nc(N)nc2ccc(-c3ccc(F)cc3)nc12 [Example 8, 2-amino-4-[2-(methylthio)ethoxy]-6-(4-fluorophenyl)pyrido(3,2-d)pyrimidine]
CC50 at 3 days [1]: > 20000 nM
pEC50 [2]: > 6.52

Nc1nc(OC2CCC2)c2nc(-c3ccc(F)cc3)ccc2n1 [Example 9, 2-amino-4-(cyclobutoxy)-6-(4-fluorophenyl)pyrido(3,2-d)pyrimidine]
CC50 at 3 days [1]: > 20000 nM
pEC50 [2]: > 6.52

Nc1nc(OCC2CCCC2)c2nc(-c3ccc(F)cc3)ccc2n1 [Example 10, 2-amino-4-(cyclopentylmethoxy)-6-(4-fluorophenyl)pyrido(3,2-d)pyrimidine]
CC50 at 3 days [1]: > 20000 nM
pEC50 [2]: 6.00 to 6.52

Nc1nc(OC2CCCC2)c2nc(-c3ccc(F)cc3)ccc2n1 [Example 11, 2-amino-4-(cyclopentoxy)-6-(4-fluorophenyl)pyrido(3,2-d)pyrimidine]
CC50 at 3 days [1]: > 20000 nM
pEC50 [2]: > 6.52

COC(C)(C)CCOc1nc(N)nc2ccc(-c3ccc(F)cc3)nc12 [Example 12, 2-amino-4-(3-methyl-3-methoxybutoxy)-6-(4-fluorophenyl)pyrido(3,2-d) pyrimidine]
CC50 at 3 days [1]: > 20000 nM
pEC50 [2]: > 6.52

C=CC(C)(C)Oc1nc(N)nc2ccc(-c3ccc(F)cc3)nc12 [Example 13, 2-amino-4-(2-methyl-3-buten-2-oxy)-6-(4-fluorophenyl)pyrido(3,2-d)pyrimidine]
CC50 at 3 days [1]: > 20000 nM
pEC50 [2]: < 6.00

CC#CCCOc1nc(N)nc2ccc(-c3ccc(F)cc3)nc12 [Example 14, 2-amino-4-(3-pentyn-1-oxy)-6-(4-fluorophenyl)pyrido(3,2-d)pyrimidine]
CC50 at 3 days [1]: > 20000 nM
pEC50 [2]: < 6.00

Nc1nc(O[C@H]2CCOC2)c2nc(-c3ccc(F)cc3)ccc2n1 [Example 16, 2-amino-4-[3(S)-tetrahydrofuranyloxy]-6-(4-fluorophenyl)-pyrido(3,2-d)pyrimidine]
CC50 at 3 days [1]: > 20000 nM
pEC50 [2]: > 6.52

Nc1nc(O[C@@H]2CCOC2)c2nc(-c3ccc(F)cc3)ccc2n1 [Example 17, 2-amino-4-[3(R)-tetrahydrofuranyloxy]-6-(4-fluorophenyl)-pyrido(3,2-d) pyrimidine]
CC50 at 3 days [1]: > 20000 nM
pEC50 [2]: > 6.52

Nc1nc(OC2CO[C@H]3OCC[C@@H]23)c2nc(-c3ccc(F)cc3)ccc2n1 (stereo partly drawn) [Example 18, 2-amino-4-[hexahydro-furo(2,3-b)furan-3-oxy]-6-(4-fluorophenyl)-pyrido(3,2-d) pyrimidine]
CC50 at 3 days [1]: > 20000 nM
pEC50 [2]: > 6.52

CS(=O)(=O)CCOc1nc(N)nc2ccc(-c3ccc(F)cc3)nc12 [Example 19, 2-amino-4-[2-(methylsulfonyl)ethoxy]-6-(4-fluorophenyl)-pyrido(3,2-d) pyrimidine]
CC50 at 3 days [1]: > 20000 nM
pEC50 [2]: > 6.52

CCC(CC)Oc1nc(N)nc2ccc(-c3ccc(F)cc3)nc12 [Example 20, 4-(1-ethyl-propoxy)-6-(4-fluoro-phenyl)-pyrido[3,2-d]pyrimidin-2-ylamine]
CC50 at 3 days [1]: < 10000 nM
pEC50 [2]: > 6.52

Nc1nc(OCCN2CCOCC2)c2nc(-c3ccc(F)cc3)ccc2n1 [Example 21, 6-(4-fluoro-phenyl)-4-(2-morpholin-4-yl-ethoxy)-pyrido[3,2-d]pyrimidin-2-ylamine]
CC50 at 3 days [1]: > 20000 nM
pEC50 [2]: 6.00 to 6.52

Nc1nc(OCC2CC2)c2nc(-c3ccc(F)cc3)ccc2n1 [Example 22, 4-cyclopropylmethoxy-6-(4-fluoro-phenyl)-pyrido[3,2-d]pyrimidin-2-ylamine]
CC50 at 3 days [1]: > 20000 nM
pEC50 [2]: > 6.52

COCCOc1nc(N)nc2ccc(-c3ccc(F)cc3)nc12 [Example 23, 6-(4-fluoro-phenyl)-4-(2-methoxy-ethoxy)-pyrido[3,2-d]pyrimidin-2-ylamine]
CC50 at 3 days [1]: > 20000 nM
pEC50 [2]: > 6.52

CCOCCOc1nc(N)nc2ccc(-c3ccc(F)cc3)nc12 [Example 24, 4-(2-ethoxy-ethoxy)-6-(4-fluoro-phenyl)-pyrido[3,2-d]pyrimidin-2-ylamine]
CC50 at 3 days [1]: > 20000 nM
pEC50 [2]: > 6.52

Nc1nc(OC2CCCCC2)c2nc(-c3ccc(F)cc3)ccc2n1 [Example 32, 2-amino-4-cyclohexyloxy-6-(4-fluorophenyl)-pyrido(3,2-d)pyrimidine]
CC50 at 3 days [1]: < 10000 nM
pEC50 [2]: 6.00 to 6.52
melting point: 180 °C

Nc1nc(OC2CCOCC2)c2nc(-c3ccc(F)cc3)ccc2n1 [Example 33, 2-amino-4-(tetrahydro-2H-pyran-4-oxy)-6-(4-fluorophenyl)-pyrido(3,2-d)pyrimidine]
CC50 at 3 days [1]: 10000 to 20000 nM
pEC50 [2]: > 6.52

Nc1nc(OCC2CCCCO2)c2nc(-c3ccc(F)cc3)ccc2n1 (stereo not drawn) [Example 34, 2-amino-4-(tetrahydropyran-2-methoxy)-6-(4-fluorophenyl)-pyrido(3,2-d)pyrimidine]
CC50 at 3 days [1]: 10000 to 20000 nM
pEC50 [2]: 6.00 to 6.52
melting point: 202 °C

Nc1nc(OCC2CCCO2)c2nc(-c3ccc(F)cc3)ccc2n1 (stereo not drawn) [Example 35, 2-amino-4-(tetrahydro-2-furanmethoxy)-6-(4-fluorophenyl)-pyrido(3,2-d)pyrimidine]
CC50 at 3 days [1]: 10000 to 20000 nM
pEC50 [2]: 6.00 to 6.52
melting point: 193 °C

Nc1nc(OCC2CCOC2)c2nc(-c3ccc(F)cc3)ccc2n1 (stereo not drawn) [Example 36, 2-amino-4-(tetrahydro-3-furanmethoxy)-6-(4-fluorophenyl)-pyrido(3,2-d)pyrimidine]
CC50 at 3 days [1]: 10000 to 20000 nM
pEC50 [2]: > 6.52
melting point: 219 °C

COC[C@H](C)Oc1nc(N)nc2ccc(-c3ccc(F)cc3)nc12 [Example 37, 2-amino-4-[(S)-1-methoxy-2-propoxy]-6-(4-fluorophenyl)-pyrido(3,2-d)pyrimidine]
CC50 at 3 days [1]: > 20000 nM
pEC50 [2]: > 6.52

COC[C@@H](C)Oc1nc(N)nc2ccc(-c3ccc(F)cc3)nc12 [Example 38, 2-amino-4-[(R)-1-methoxy-2-propoxy]-6-(4-fluorophenyl)-pyrido(3,2-d)pyrimidine]
CC50 at 3 days [1]: 10000 to 20000 nM
pEC50 [2]: > 6.52
